In data set [1] the target is T1, MMAB (recombinant human MMAB, amino acids 56–250) (Homo sapiens, UniProt Q96EY8).
T1 construct: N-terminally truncated residues 56-250, mitochondrial leader omitted; homotrimer, native mass 78 kDa by SEC
T1 sequence (Q96EY8 56-250): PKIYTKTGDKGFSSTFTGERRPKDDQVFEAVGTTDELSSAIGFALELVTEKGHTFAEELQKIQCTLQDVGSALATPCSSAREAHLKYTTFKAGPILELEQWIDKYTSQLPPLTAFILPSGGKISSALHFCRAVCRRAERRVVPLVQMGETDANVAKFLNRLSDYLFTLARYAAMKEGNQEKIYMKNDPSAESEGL
Put plainly: fluorescence titration (MMAB into […] MANT-ATP, ex […] / em […] nm). It counts as binding.

For data set [2], the target named is T1, MMAB (recombinant human MMAB, amino acids 56–250). Put plainly: isothermal titration calorimetry. It counts as binding. On the technique in general: ITC needs no label: the signal is the heat of the interaction.
Data set [3] deals with the molecule itself. Put plainly: SEC; analytical gel filtration, Superose 6 Increase 10/300 GL, Buffer A (100 mM HEPES pH 7.5, 300 mM KCl, 250 µM MgCl2, 5% glycerol); 100 µl of protein at 25 µM; calibrated with 29, 150 and 443 kDa standards. In general terms: SEC sorts molecules by how far they enter the pores of the column.

Results on four molecules are retold here after publication PMC9262797, “Spectrum and characterization of bi-allelic variants in MMAB causing cblB-type methylmalonic aciduria” (Human Genetics, 2021).

`CNc1ccccc1C(=O)O[C@H]1[C@@H](O)[C@H](n2cnc3c(N)ncnc32)O[C@@H]1CO[P@@](=O)(O)O[P@](=O)(O)OP(=O)(O)O` [MANT-ATP, 2',3'-O-(N-Methyl-anthraniloyl)-adenosine-5'-triphosphate]: in data set [1], the Kd (usually the concentration at which binding is half-saturated) amounted to 21.1 ± 3.4 µM. In the case of `Nc1ncnc2c1ncn2[C@@H]1O[C@H](COP(=O)(O)OP(=O)(O)OP(=O)(O)O)[C@@H](O)[C@H]1O` [ATP], the Kd in data set [2] was determined as 14.2 ± 0.6 µM.

B1: human methylmalonyl-CoA mutase (MMUT) (enzyme, UniProt P22033 33-750, looked up)
chain: LHQQQPLHPEWAALAKKQLKGKNPEDLIWHTPEGISIKPLYSKRDTMDLPEELPGVKPFTRGPYPTMYTFRPWTIRQYAGFSTVEESNKFYKDNIKAGQQGLSVAFDLATHRGYDSDNPRVRGDVGMAGVAIDTVEDTKILFDGIPLEKMSVSMTMNGAVIPVLANFIVTGEEQGVPKEKLTGTIQNDILKEFMVRNTYIFPPEPSMKIIADIFEYTAKHMPKFNSISISGYHMQEAGADAILELAYTLADGLEYSRTGLQAGLTIDEFAPRLSFFWGIGMNFYMEIAKMRAGRRLWAHLIEKMFQPKNSKSLLLRAHCQTSGWSLTEQDPYNNIVRTAIEAMAAVFGGTQSLHTNSFDEALGLPTVKSARIARNTQIIIQEESGIPKVADPWGGSYMMECLTNDVYDAALKLINEIEEMGGMAKAVAEGIPKLRIEECAARRQARIDSGSEVIVGVNKYQLEKEDAVEVLAIDNTSVRNRQIEKLKKIKSSRDQALAERCLAALTECAASGDGNILALAVDASRARCTVGEITDALKKVFGEHKANDRMVSGAYRQEFGESKEITSAIKRVHKFMEREGRRPRLLVAKMGQDGHDRGAKVIATGFADLGFDVDIGPLFQTPREVAQQAVDADVHAVGISTLAAGHKTLVPELIKELNSLGRPDILVMCGGVIPPQDYEFLFEVGVSNVFGPGTRIPKAAVQVLDDIEKCLEKKQQSV
notes: methylmalonyl-CoA mutase (MMUT), human, recombinant; also called apo-MMUT; holo-MMUT; source: recombinant, produced as previously described (Plessl et al. 2017), purified
For B1, in data set [3], the stoichiometry N (commonly a count of units in the complex or per binding partner) was 2.

B2: human ATP:cob(I)alamin adenosyltransferase (MMAB), amino acids 56-250 (enzyme, UniProt Q96EY8 56-250, looked up)
chain: T1 sequence (Q96EY8 56-250)
notes: ATP:cob(I)alamin adenosyltransferase (MMAB), human, N-terminally truncated, amino acids 56-250; same residues as in the human MMAB structure of Campanello et al. 2018; also called ATP:cobalamin adenosyltransferase; apo-MMAB; source: recombinant, produced as previously described (Plessl et al. 2017), purified
B2: in data set [3], the “stoichiometry N” value was 3.
